Results as given in article PMC11477289, “Low-Basicity 5-HT6 Receptor Ligands from the Group of Cyclic Arylguanidine Derivatives and Their Antiproliferative Activity Evaluation” (International Journal of Molecular Sciences, 2024).
Where “and” joins values, the source holds several entries; their conditions need not be identical. Identical values can stand only once.

Assays:
U-251 glioblastoma cells = assay: Antiproliferative activity (MTS), U-251; settings: Homo sapiens, U-251, 72 h, read-out: IC50 Values U-251
[1] = system: MCF7 breast carcinoma cell line; assay: Antiproliferative activity (MTS), MCF7; settings: Homo sapiens, MCF7, 72 h, read-out: IC50 Values MCF7
[2] = system: AsPC-1 pancreas adenocarcinoma cell line; assay: Antiproliferative activity (MTS), AsPC-1; settings: Homo sapiens, ASPC1, 72 h, read-out: IC50 Values AsPC-1
human 5-HT6 = target: T1, human 5-HT6 (Homo sapiens, UniProt P50406); assay: [3H]-LSD radioligand binding assay, 5-HT6R; settings: HEK293 expressing human 5-HT6R, read-out: 5-HT6 Ki
T1 construct: expressed in transfected cells
T1 sequence (P50406 whole entry): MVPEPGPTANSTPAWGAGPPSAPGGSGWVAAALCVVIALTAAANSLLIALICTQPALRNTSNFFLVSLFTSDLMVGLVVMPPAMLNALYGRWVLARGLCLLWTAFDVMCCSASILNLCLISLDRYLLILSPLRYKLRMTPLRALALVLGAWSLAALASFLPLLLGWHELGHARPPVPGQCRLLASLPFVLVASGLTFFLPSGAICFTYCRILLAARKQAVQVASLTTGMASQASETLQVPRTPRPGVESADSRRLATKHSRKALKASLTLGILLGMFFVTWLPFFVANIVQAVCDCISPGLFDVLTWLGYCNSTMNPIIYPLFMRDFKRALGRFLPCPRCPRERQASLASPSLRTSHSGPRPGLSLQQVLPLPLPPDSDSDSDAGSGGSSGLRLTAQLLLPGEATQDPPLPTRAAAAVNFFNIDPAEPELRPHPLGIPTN
Method: Next, the ligands’ affinity for the 5-HT6 receptors was evaluated in the [^3H]-LSD radioligand binding assay. Experiments were performed in a stable HEK293 cell line expressing the human 5-HT6R.
The pellets were stored at −80 °C.

[3] = system: LN-229 glioblastoma cell line; assay: Antiproliferative activity (MTS), LN-229; settings: Homo sapiens, LN-229, 72 h, read-out: IC50 Values LN-229
[4] = Affinity to phospholipids, IAM column (CHI IAM); assay type: physicochemical; settings: IAM.PC.DD2 column, pH 7.4
[5] = target: human serum albumin (HSA) (Homo sapiens, UniProt P02768); assay: Binding to HSA, Chiralpak HSA column; settings: Chiralpak HSA column
Chain of human serum albumin (HSA) (P02768 25-609): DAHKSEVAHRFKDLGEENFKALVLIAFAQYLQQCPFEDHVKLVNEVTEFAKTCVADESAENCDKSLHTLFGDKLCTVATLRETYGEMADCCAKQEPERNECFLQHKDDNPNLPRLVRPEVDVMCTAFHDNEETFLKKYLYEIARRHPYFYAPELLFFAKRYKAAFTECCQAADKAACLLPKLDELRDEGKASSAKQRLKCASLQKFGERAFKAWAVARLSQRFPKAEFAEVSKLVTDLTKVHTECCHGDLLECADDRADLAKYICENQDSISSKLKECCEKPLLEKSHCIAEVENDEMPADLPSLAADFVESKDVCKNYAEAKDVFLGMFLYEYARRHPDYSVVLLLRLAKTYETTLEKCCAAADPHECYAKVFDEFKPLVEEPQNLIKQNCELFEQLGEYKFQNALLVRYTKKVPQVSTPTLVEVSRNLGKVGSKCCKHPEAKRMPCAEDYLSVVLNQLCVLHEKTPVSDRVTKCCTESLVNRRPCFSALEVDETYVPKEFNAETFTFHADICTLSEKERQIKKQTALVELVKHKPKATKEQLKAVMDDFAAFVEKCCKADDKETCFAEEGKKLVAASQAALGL
Text: We began with an assay for lipophilicity, affinity for phospholipids (for 40 compounds), and drug binding to human serum albumin (HSA) (for 20 compounds), using chromatographic protocols developed by Valko [46] and implemented in our laboratory. Compounds with the highest affinity for 5-HT6R and those showing the most promising ADMET parameters, including the possibility of BBB penetration, DDI, and lipophilicity, determined in silico in SwissADME [45], were selected for testing. These methods allowed the determination of chromatographic hydrophobicity indices (CHIs), binding to HSA (%HSA), and phospholipids (CHIIAM) using a single-gradient elution experiment and comparison to reference substances.
The use of columns modified with plasma proteins, such as HSA, also allows for the estimation of binding to HSA, which is the most dominant plasma protein (PP). Binding to PP affects drug pharmacokinetics, such as distribution, half-life, and clearance.
The mobile phase flow rate was 1.5 mL/min, and the column was maintained at 30 °C. • Chiralpak® HSA (50 mm × 4 mm; 5 µm with safety guard column; Daicel Chiral Technologies, West Chester, PA, USA), mobile phase A: 50 mM ammonium acetate, mobile phase B: HPLC-grade isopropanol (VWR International, Leuven, Belgium). For the first 15 min, the linear gradient from 0 to 20% isopropanol was applied and then held at 20% isopropanol for 12 min. In the last 5 min of the sequence, the mobile phase mixture received a pure ammonium acetate solution. The column temperature was held at 30 °C, whereas the flow rate was 0.9 mL/min.
The reference substances for the calibration of HSA, C18, and IAM columns were purchased, respectively: acetanilide, butyrophenone, diclofenac, and octanonophenone (Alfa Aesar, Haverhill, MA, USA); acetophenone, benzimidazole, colchicine, indole, indometacin, paracetamol, and theophylline (Sigma-Aldrich, Steinheim, Germany); nicardipine and nizatidine (Cayman Chemical, Ann Arbor, MI, USA); carbamazepine, heptanophenone, hexanophenone, propiophenone, and valerophenone (Acros Organic, Pittsburg, PA, USA). Before chromatographic experiments, solutes were dissolved in dimethyl sulfoxide (Avantor Performance Materials Poland S.A., Gliwice, Poland) to obtain a 200 µg/mL concentration. The detection was performed in the UV region at the wavelength from 190 nm to 300 nm. The injected volume was 5 μL, and each compound was analyzed in triplicate.

U87MG glioblastoma cells = assay: Antiproliferative activity (MTS), U87MG; settings: Homo sapiens, U-87 MG, 72 h, read-out: IC50 Values U87MG
[6] = system: 1321N1 astrocytoma cell line; assay: Antiproliferative activity (MTS), 1321N1; settings: Homo sapiens, 1321-N1, 72 h, read-out: IC50 Values 1321N1
[7] = Chromatographic hydrophobicity index on C18 column (lipophilicity); assay type: physicochemical

| IC50 (U-251 glioblastoma cells) [µM] | IC50 [1] [µM] | IC50 [2] [µM] | melting point [°C] | Ki (human 5-HT6) [µM] | IC50 [3] [µM] | CHI IAM [4] | %HSA [5] [%] | logKHSA [5] | IC50 (U87MG glioblastoma cells) [µM] | IC50 [6] [µM] | acid–base properties ([7]; comparison of CHI values at different pH levels) | CHI C18 pH 2.6 [7] | CHI C18 pH 7.4 [7] | CHI C18 pH 10.5 [7] | SMILES |
| --- | --- | --- | --- | --- | --- | --- | --- | --- | --- | --- | --- | --- | --- | --- | --- |
| > 25 | > 25 | > 25 | 245 to 249 | 0.172 ± 0.041 | > 25 | 41.4 | 97.3 | 1.4 | > 25 | > 25 | – | 92.8 | 90.8 | 96.6 | COc1cccc2c1CNC(NS(=O)(=O)c1cccc3ccccc13)=N2 [PR 58, N -(5-methoxy-3,4-dihydroquinazolin-2-yl)naphthalene-1-sulfonamide] |
| – | – | – | 233 to 237 | 0.412 ± 0.095 | – | 41.4 | 97.3 | 1.4 | > 25 | > 25 | – | 93.1 | 91.8 | 94.2 | Cc1cccc2c1CNC(NS(=O)(=O)c1cccc3ccccc13)=N2 [PR 61, N -(5-methyl-3,4-dihydroquinazolin-2-yl)naphthalene-1-sulfonamide] |
| – | – | – | 215 to 219 | 1.04 ± 0.26 | – | 55.5 | 99.9 | 2.0 | 17 ± 0.4 | 13.4 ± 0.8 | – | 125.7 | 123 and 123.9 | 128.1 | CC1NC(NS(=O)(=O)c2ccc(Cl)c3ccccc23)=Nc2c(Cl)cc(Cl)cc21 (stereo not shown) [PR 74, 4-chloro-N-(6,8-dichloro-4-methyl-3,4-dihydroquinazolin-2-yl)naphthalene-1-sulfonamide] |
| – | – | – | 119 to 123 | 0.484 ± 0.121 | – | 46.3 | 98.3 | 1.6 | > 25 | > 25 | – | 103.2 | 101.2 | 105.6 | CC1NC(NS(=O)(=O)c2cccc3ccccc23)=Nc2ccc(Br)cc21 (stereo not shown) [PR 75, N -(6-bromo-4-methyl-3,4-dihydroquinazolin-2-yl)naphthalene-1-sulfonamide] |
| > 25 | > 25 | > 25 | 178 to 180 | 0.273 ± 0.068 | > 25 | – | – | – | > 25 | > 25 | – | – | – | – | O=S(=O)(NC1=Nc2ccccc2CCN1)c1cccc2ccccc12 [PR 78, N -(4,5-dihydro-3H-1,3-benzodiazepin-2-yl)naphthalene-1-sulfonamide] |

Further lines, the compound ahead of its results:

| SMILES | IC50 (U-251 glioblastoma cells) [µM] | IC50 [1] [µM] | IC50 [2] [µM] | melting point [°C] | Ki (human 5-HT6) [µM] | IC50 [3] [µM] | CHI IAM [4] | %HSA [5] [%] | logKHSA [5] | IC50 (U87MG glioblastoma cells) [µM] | IC50 [6] [µM] | acid–base properties ([7]; comparison of CHI values at different pH levels) | CHI C18 pH 2.6 [7] | CHI C18 pH 7.4 [7] | CHI C18 pH 10.5 [7] |
| --- | --- | --- | --- | --- | --- | --- | --- | --- | --- | --- | --- | --- | --- | --- | --- |
| O=S(=O)(Nc1nc2ccccc2[nH]1)c1cccc2ccccc12 [PR 11, N -(1H-1,3-benzodiazol-2-yl)naphthalene-1-sulfonamide] | > 25 | > 25 | > 25 | > 315 | 0.325 ± 0.081 | > 25 | 39.3 | 95.7 | 1.3 | > 25 | > 25 | acidic | 78.8 | 76.7 | 58.4 |
| O=S(=O)(NC1=Nc2ccccc2CN1)c1cccc(Cl)c1 [PR 19, 3-chloro-N-(3,4-dihydroquinazolin-2-yl)benzene-1-sulfonamide] | > 25 | > 25 | > 25 | 176 to 180 | 0.521 ± 0.13 | > 25 | 36.6 | 91.3 | 1.0 | > 25 | > 25 | – | 83.7 | 83.2 | 87.3 |
| O=S(=O)(NC1=Nc2ccccc2CN1)c1ccc2c(Cl)cccc2c1 [PR 30, 5-chloro-N-(3,4-dihydroquinazolin-2-yl)naphthalene-2-sulfonamide] | > 25 | > 25 | > 25 | 192 to 195 | 0.972 ± 0.242 | > 25 | 45.2 | – | – | – | – | – | 99.1 | 97.7 | 100.4 |
| CC1NC(NS(=O)(=O)c2ccc3ccccc3c2)=Nc2ccc(Br)cc21 (stereo not shown) [PR 36, N -(6-bromo-4-methyl-3,4-dihydroquinazolin-2-yl)naphthalene-2-sulfonamide] | > 25 | > 25 | > 25 | – | 29.4 ± 7.36 | > 25 | – | – | – | > 25 | > 25 | – | – | – | – |
| O=S(=O)(NC1=Nc2ccc(Cl)cc2CN1)c1cccc2ccccc12 [PR 47, N -(6-chloro-3,4-dihydroquinazolin-2-yl)naphthalene-1-sulfonamide] | – | – | – | 275 to 277 | 0.341 ± 0.076 | – | 44.0 | 97.8 | 1.5 | > 25 | > 25 | – | 96.5 | 95.3 | 98.1 |
| O=S(=O)(NC1=Nc2c(Cl)cc(Cl)cc2CN1)c1cccc2ccccc12 [PR 51, N -(6,8-dichloro-3,4-dihydroquinazolin-2-yl)naphthalene-1-sulfonamide] | – | – | – | 214 to 219 | 0.866 ± 0.199 | – | 48.4 | 99.0 | 1.7 | > 25 | > 25 | – | 108.2 | 106.2 | 110.1 |
| O=S(=O)(NC1=Nc2cccc(Cl)c2CN1)c1ccc(Cl)c2ccccc12 [PR 53, 4-chloro-N-(5-chloro-3,4-dihydroquinazolin-2-yl)naphthalene-1-sulfonamide] | > 25 | > 25 | > 25 | 217 to 223 | 0.189 ± 0.042 | > 25 | 51.6 | 99.5 | 1.8 | > 25 | > 25 | – | 111.2 | 109.2 | 112.5 |
| O=S(=O)(NC1=Nc2cccc(F)c2CN1)c1cccc2ccccc12 [PR 54, N -(5-fluoro-3,4-dihydroquinazolin-2-yl)naphthalene-1-sulfonamide] | – | – | – | 191 to 193 | 0.381 ± 0.088 | – | 40.8 | 96.4 | 1.3 | > 25 | > 25 | – | 90.8 | 89.4 | 92.4 |
